From patent publication US11446287B2, “Compounds and methods for EP300 or CBP modulation and indications therefor” (Opna Immuno-Oncology SA, priority 2019, dated 2022)

Target: T1, Recombinant human EP300 containing the bromodomain (EP300-BD (1040-1161)) (Homo sapiens, UniProt Q09472)
T1 construct: Recombinant human EP300 bromodomain (EP300-BD (1040-1161)); made in house; host or cells: E. coli BL21-CodonPlus (DE3), modified pET vector
T1 sequence (Q09472 1040-1161): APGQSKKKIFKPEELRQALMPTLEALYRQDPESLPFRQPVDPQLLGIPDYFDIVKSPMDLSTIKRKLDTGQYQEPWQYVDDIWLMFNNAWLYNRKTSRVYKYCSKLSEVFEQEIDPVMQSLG
Experiment: EP300 Alphascreen binding assay
In short: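 Displacement of a biotinylated acetyl-K56 histone H3 peptide from the N-His bromodomain construct (1040-1161) measured by AlphaScreen proximity, beads at 7.5 μg/ml final, read 60 min after addition. Protein, peptide and compound first incubated 1 h at room temperature, pH 7.5 HEPES buffer; IC50 by four-parameter logistic fit.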

| Compound | IC50 |
| --- | --- |
| Cc1noc(C)c1-c1cnc2c(c1)c(-c1ccc(C(N)=O)cc1)cn2C(c1ccccn1)C1CCCC1 (centres unmarked) [P-0020, 4-(1-(cyclopentyl(pyridin-2-yl)methyl)-5-(3,5-dimethylisoxazol-4-yl)-1H-pyrrolo[2,3-b]pyridin-3-yl)benzamide] | 1 to 8 µM |
| CNC(=O)c1ccc(-c2cn(C(c3ccccn3)C3CCCC3)c3ncc(-c4c(C)noc4C)cc23)cc1 (centres unmarked) [P-0021, 4-(1-(cyclopentyl(pyridin-2-yl)methyl)-5-(3,5-dimethylisoxazol-4-yl)-1H-pyrrolo[2,3-b]pyridin-3-yl)-N-methylbenzamide] | 1 to 8 µM |
| Cc1noc(C)c1-c1cnc2c(c1)c(-c1ccc(C#N)cc1)cn2C(c1ccccn1)C1CCCC1 (centres unmarked) [P-0022, 4-(1-(cyclopentyl(pyridin-2-yl)methyl)-5-(3,5-dimethylisoxazol-4-yl)-1H-pyrrolo[2,3-b]pyridin-3-yl)benzonitrile] | 8 to 1000 µM |
| Cc1noc(C)c1-c1cnc2c(c1)c(-c1ccc3c(c1)CNC3=O)cn2C(c1ccccn1)C1CCCC1 (centres unmarked) [P-0023, 5-(1-(cyclopentyl(pyridin-2-yl)methyl)-5-(3,5-dimethylisoxazol-4-yl)-1H-pyrrolo[2,3-b]pyridin-3-yl)isoindolin-1-one] | 1 to 8 µM |
| Cc1noc(C)c1-c1cnc2c(c1)c(-c1ccc(-c3nn[nH]n3)cc1)cn2C(c1ccccn1)C1CCCC1 (centres unmarked) [P-0024, 4-(3-(4-(2H-tetrazol-5-yl)phenyl)-1-(cyclopentyl(pyridin-2-yl)methyl)-1H-pyrrolo[2,3-b]pyridin-5-yl)-3,5-dimethylisoxazole] | 1 to 8 µM |
| Cc1noc(C)c1-c1cnc2c(c1)c(-c1ccc(C(=O)O)c(F)c1)cn2C(c1ccccn1)C1CCCC1 (centres unmarked) [P-0025, 4-(1-(cyclopentyl(pyridin-2-yl)methyl)-5-(3,5-dimethylisoxazol-4-yl)-1H-pyrrolo[2,3-b]pyridin-3-yl)-2-fluorobenzoic acid] | 0.0001 to 1 µM |
| Cc1noc(C)c1-c1cnc2c(c1)c(-c1ccc(C(=O)O)nc1)cn2C(c1ccccn1)C1CCCC1 (centres unmarked) [P-0026, 5-(1-(cyclopentyl(pyridin-2-yl)methyl)-5-(3,5-dimethylisoxazol-4-yl)-1H-pyrrolo[2,3-b]pyridin-3-yl)picolinic acid] | 0.0001 to 1 µM |
| Cc1cc(-c2c(C(F)(F)F)n([C@@H](C)c3ccccn3)c3cc(-c4c(C)noc4C)cnc23)ccc1C(=O)O [P-0243, (S)-4-(6-(3,5-dimethylisoxazol-4-yl)-1-(1-(pyridin-2-yl)ethyl)-2-(trifluoromethyl)-1H-pyrrolo[3,2-b]pyridin-3-yl)-2-methylbenzoic acid] | 1 to 8 µM |
| COc1cc(-c2c(C(F)(F)F)n([C@@H](C)c3ccccn3)c3cc(-c4c(C)noc4C)cnc23)ccc1C(=O)O [P-0244, (S)-4-(6-(3,5-dimethylisoxazol-4-yl)-1-(1-(pyridin-2-yl)ethyl)-2-(trifluoromethyl)-1H-pyrrolo[3,2-b]pyridin-3-yl)-2-methoxybenzoic acid] | 1 to 8 µM |
| Cc1noc(C)c1-c1cnc2c(-c3cccc(C(=O)O)c3F)c(C(F)(F)F)n([C@@H](C)c3ccccn3)c2c1 [P-0245, (S)-3-(6-(3,5-dimethylisoxazol-4-yl)-1-(1-(pyridin-2-yl)ethyl)-2-(trifluoromethyl)-1H-pyrrolo[3,2-b]pyridin-3-yl)-2-fluorobenzoic acid] | 0.0001 to 1 µM |
| Cc1noc(C)c1-c1cnc2c(-c3cccc(C(=O)O)c3C)c(C(F)(F)F)n([C@@H](C)c3ccccn3)c2c1 [P-0246, (S)-3-(6-(3,5-dimethylisoxazol-4-yl)-1-(1-(pyridin-2-yl)ethyl)-2-(trifluoromethyl)-1H-pyrrolo[3,2-b]pyridin-3-yl)-2-methylbenzoic acid] | 1 to 8 µM |
| Cc1noc(C)c1-c1cnc2c(-c3cccc(C(=O)O)c3Cl)c(C(F)(F)F)n([C@@H](C)c3ccccn3)c2c1 [P-0247, (S)-2-chloro-3-(6-(3,5-dimethylisoxazol-4-yl)-1-(1-(pyridin-2-yl)ethyl)-2-(trifluoromethyl)-1H-pyrrolo[3,2-b]pyridin-3-yl)benzoic acid] | 0.0001 to 1 µM |
| CCOC(=O)c1cc(-c2cn(-c3ccc(F)cc3F)c3ncc(-c4c(C)noc4C)cc23)c(OCC)cc1O [P-0248, ethyl 5-(1-(2,4-difluorophenyl)-5-(3,5-dimethylisoxazol-4-yl)-1H-pyrrolo[2,3-b]pyridin-3-yl)-4-ethoxy-2-hydroxybenzoate] | 8 to 1000 µM |
| CCOc1cc(O)c(C(=O)O)cc1-c1cn(-c2ccc(F)cc2F)c2ncc(-c3c(C)noc3C)cc12 [P-0249, 5-(1-(2,4-difluorophenyl)-5-(3,5-dimethylisoxazol-4-yl)-1H-pyrrolo[2,3-b]pyridin-3-yl)-4-ethoxy-2-hydroxybenzoic acid] | 0.0001 to 1 µM |
| CCOc1cc(OC)c(C(=O)O)cc1-c1cn(-c2ccc(F)cc2F)c2ncc(-c3c(C)noc3C)cc12 [P-0250, 5-(1-(2,4-difluorophenyl)-5-(3,5-dimethylisoxazol-4-yl)-1H-pyrrolo[2,3-b]pyridin-3-yl)-4-ethoxy-2-methoxybenzoic acid] | 0.0001 to 1 µM |
| Cc1noc(C)c1-c1cnc2c(c1)c(-c1ccc(C(=O)O)cc1OC(F)(F)F)cn2-c1cnccc1F [P-0251, 4-(5-(3,5-dimethylisoxazol-4-yl)-1-(4-fluoropyridin-3-yl)-1H-pyrrolo[2,3-b]pyridin-3-yl)-3-(trifluoromethoxy)benzoic acid] | 0.0001 to 1 µM |
| Cc1noc(C)c1-c1cnc2c(c1)c(-c1ccc(C(=O)O)cc1OC(F)(F)F)cn2-c1cnccc1O [P-0252, 4-(5-(3,5-dimethylisoxazol-4-yl)-1-(4-hydroxypyridin-3-yl)-1H-pyrrolo[2,3-b]pyridin-3-yl)-3-(trifluoromethoxy)benzoic acid] | 0.0001 to 1 µM |
| Cc1noc(C)c1-c1cnc2c(c1)c(-c1ccc(C(=O)O)cc1OC(F)(F)F)cn2-c1ccncc1Cl [P-0253, 4-(1-(3-chloropyridin-4-yl)-5-(3,5-dimethylisoxazol-4-yl)-1H-pyrrolo[2,3-b]pyridin-3-yl)-3-(trifluoromethoxy)benzoic acid] | 0.0001 to 1 µM |
| Cc1noc(C)c1-c1cnc2c(c1)c(-c1ccc(C(=O)O)cc1OC(F)(F)F)cn2-c1c(F)cccc1C#N [P-0254, 4-(1-(2-cyano-6-fluorophenyl)-5-(3,5-dimethylisoxazol-4-yl)-1H-pyrrolo[2,3-b]pyridin-3-yl)-3-(trifluoromethoxy)benzoic acid] | 0.0001 to 1 µM |
| COc1cc(C(=O)O)cc(C)c1-c1cn(-c2ccccc2)c2ncc(-c3c(C)noc3C)cc12 [P-0255, 4-(5-(3,5-dimethylisoxazol-4-yl)-1-phenyl-1H-pyrrolo[2,3-b]pyridin-3-yl)-3-methoxy-5-methylbenzoic acid] | 0.0001 to 1 µM |
| Cc1noc(C)c1-c1cnc2c(-c3ccc(C(=O)O)cc3C#N)c(C(F)(F)F)n([C@@H](C)c3ccccn3)c2c1 [P-0256, (S)-3-cyano-4-(6-(3,5-dimethylisoxazol-4-yl)-1-(1-(pyridin-2-yl)ethyl)-2-(trifluoromethyl)-1H-pyrrolo[3,2-b]pyridin-3-yl)benzoic acid] | 0.0001 to 1 µM |
| Cc1noc(C)c1-c1cnc2c(-c3cc(C(=O)O)ccc3Cl)c(C(F)(F)F)n([C@@H](C)c3ccccn3)c2c1 [P-0257, (S)-4-chloro-3-(6-(3,5-dimethylisoxazol-4-yl)-1-(1-(pyridin-2-yl)ethyl)-2-(trifluoromethyl)-1H-pyrrolo[3,2-b]pyridin-3-yl)benzoic acid] | 0.0001 to 1 µM |
| CCOc1cc(C(=O)O)cc(OCC)c1-n1cc(-c2cnn(CS(C)(=O)=O)c2)c2ncc(-c3c(C)noc3C)cc21 [P-0258, 4-(6-(3,5-dimethylisoxazol-4-yl)-3-(1-((methylsulfonyl)methyl)-1H-pyrazol-4-yl)-1H-pyrrolo[3,2-b]pyridin-1-yl)-3,5-diethoxybenzoic acid] | 0.0001 to 1 µM |
| CCOc1cc(C(=O)O)cc(OCC)c1-n1cc(-c2cn(C(C)C)nc2C)c2ncc(-c3c(C)noc3C)cc21 [P-0259, 4-(6-(3,5-dimethylisoxazol-4-yl)-3-(1-isopropyl-3-methyl-1H-pyrazol-4-yl)-1H-pyrrolo[3,2-b]pyridin-1-yl)-3,5-diethoxybenzoic acid] | 0.0001 to 1 µM |
| CCOc1cc(C(=O)O)cc(OCC)c1-n1cc(-c2cnn(CC(C)(C)O)c2)c2ncc(-c3c(C)noc3C)cc21 [P-0260, 4-(6-(3,5-dimethylisoxazol-4-yl)-3-(1-(2-hydroxy-2-methylpropyl)-1H-pyrazol-4-yl)-1H-pyrrolo[3,2-b]pyridin-1-yl)-3,5-diethoxybenzoic acid] | 0.0001 to 1 µM |
| CCOc1cc(C(=O)O)cc(OCC)c1-n1cc(-c2cnn(C(F)F)c2)c2ncc(-c3c(C)noc3C)cc21 [P-0261, 4-(3-(1-(difluoromethyl)-1H-pyrazol-4-yl)-6-(3,5-dimethylisoxazol-4-yl)-1H-pyrrolo[3,2-b]pyridin-1-yl)-3,5-diethoxybenzoic acid] | 0.0001 to 1 µM |
| CCOc1cc(C(=O)O)cc(OCC)c1-n1cc(-c2cnn(CCN(C)C)c2)c2ncc(-c3c(C)noc3C)cc21 [P-0262, 4-(3-(1-(2-(dimethylamino)ethyl)-1H-pyrazol-4-yl)-6-(3,5-dimethylisoxazol-4-yl)-1H-pyrrolo[3,2-b]pyridin-1-yl)-3,5-diethoxybenzoic acid] | 0.0001 to 1 µM |
| CCOc1cc(C(=O)O)cc(OCC)c1-n1cc(-c2cn(C)nc2C)c2ncc(-c3c(C)noc3C)cc21 [P-0263, 4-(3-(1,3-dimethyl-1H-pyrazol-4-yl)-6-(3,5-dimethylisoxazol-4-yl)-1H-pyrrolo[3,2-b]pyridin-1-yl)-3,5-diethoxybenzoic acid] | 0.0001 to 1 µM |
| CCOc1cc(C(=O)O)cc(OCC)c1-n1cc(-c2cnn(CC3CC3)c2)c2ncc(-c3c(C)noc3C)cc21 [P-0264, 4-(3-(1-(cyclopropylmethyl)-1H-pyrazol-4-yl)-6-(3,5-dimethylisoxazol-4-yl)-1H-pyrrolo[3,2-b]pyridin-1-yl)-3,5-diethoxybenzoic acid] | 0.0001 to 1 µM |
